For 2 compounds, mutagenic call results are on record in PubChem BioAssay AID1259407 (Chemical Carcinogenesis Research Information System (CCRIS), 2018).

The source made the active and inactive calls. How the calls were made is not given here.

The data set has as its system CCRIS mutagenicity, Ames/micronucleus/aberration tests. Put plainly: CCRIS mutagenicity studies.
[1] abbreviates: Test System: AMES SALMONELLA TYPHIMURIUM, Strain/Indicator: TA98, Metabolic Activation: NONE, Method: STANDARD PLATE.
Where [2] appears, read: Test System: AMES SALMONELLA TYPHIMURIUM, Strain/Indicator: TA98, Metabolic Activation: RAT, LIVER, S-9, AROCLOR 1254, Method: STANDARD PLATE.
[3] abbreviates: Test System: AMES SALMONELLA TYPHIMURIUM, Strain/Indicator: TA100, Metabolic Activation: NONE, Method: PREINCUBATION
[4] abbreviates: Test System: AMES SALMONELLA TYPHIMURIUM, Strain/Indicator: TA100, Metabolic Activation: NONE, Method: STANDARD PLATE.
[5] abbreviates: Test System: AMES SALMONELLA TYPHIMURIUM, Strain/Indicator: TA100, Metabolic Activation: RAT, LIVER, S-9, AROCLOR 1254, Method: STANDARD PLATE.

With `O=[N+]([O-])c1cc2c3ccccc3ccc2c2ccccc12`, the mutagenic call (Test System: AMES SALMONELLA TYPHIMURIUM, Strain/Indicator: TA98, Metabolic Activation: HAMSTER LIVER S-9, 6-NITROCHRYSENE, Method: PREINCUBATION) is “active; positive”; the mutagenic call (Test System: AMES SALMONELLA TYPHIMURIUM, Strain/Indicator: TA98, Metabolic Activation: HAMSTER LIVER S-9, Method: PREINCUBATION) was “active; positive”; the mutagenic call under setting [1] was “active; positive”; the mutagenic call (Test System: AMES SALMONELLA TYPHIMURIUM, Strain/Indicator: TA98, Metabolic Activation: RAT, LIVER, S-9, AROCLOR 1254, Method: PREINCUBATION) is “active; positive”; the mutagenic call under setting [2] is “active; positive”; the mutagenic call (Test System: AMES SALMONELLA TYPHIMURIUM, Strain/Indicator: TA98, Metabolic Activation: RAT, LIVER, S-9, Method: PREINCUBATION) was “active; positive”. Also, the mutagenic call is “active; positive” (Test System: AMES SALMONELLA TYPHIMURIUM, Strain/Indicator: TA100, Metabolic Activation: HAMSTER LIVER S-9, 6-NITROCHRYSENE, Method: PREINCUBATION); “active; positive” (Test System: AMES SALMONELLA TYPHIMURIUM, Strain/Indicator: TA100, Metabolic Activation: HAMSTER LIVER S-9, Method: PREINCUBATION); “active; positive” under setting [3]; “active; positive” under setting [4]; “active; positive” (Test System: AMES SALMONELLA TYPHIMURIUM, Strain/Indicator: TA100, Metabolic Activation: RAT, LIVER, S-9, AROCLOR 1254, Method: PREINCUBATION); “active; positive” under setting [5]. Besides, the mutagenic call runs as follows: (Test System: AMES SALMONELLA TYPHIMURIUM, Strain/Indicator: TA100, Metabolic Activation: RAT, LIVER, S-9, Method: PREINCUBATION) “active; positive”; (Test System: AMES SALMONELLA TYPHIMURIUM, Strain/Indicator: TA102, Metabolic Activation: HAMSTER LIVER S-9, 6-NITROCHRYSENE, Method: PREINCUBATION) “active; positive”; (Test System: AMES SALMONELLA TYPHIMURIUM, Strain/Indicator: TA102, Metabolic Activation: HAMSTER LIVER S-9, Method: PREINCUBATION) “active; positive”; (Test System: AMES SALMONELLA TYPHIMURIUM, Strain/Indicator: TA102, Metabolic Activation: NONE, Method: PREINCUBATION) “inactive; negative”; (Test System: CHINESE HAMSTER OVARY, Strain/Indicator: CHO-K1-BH4 (HGPRT)/6-THIOGUANINE, Metabolic Activation: NONE, Method: STANDARD PLATE) “inactive; negative”; (Test System: CHINESE HAMSTER OVARY, Strain/Indicator: CHO-K1-BH4 (HGPRT)/6-THIOGUANINE, Metabolic Activation: RAT, LIVER, S-9, AROCLOR 1254, Method: STANDARD PLATE) “active; positive”. The mutagenic call by setting is: (Test System: CHINESE HAMSTER OVARY, Strain/Indicator: CHO-UV5 (HGPRT)/6-THIOGUANINE, Metabolic Activation: NONE, Method: STANDARD PLATE) “active; positive”; (Test System: CHINESE HAMSTER OVARY, Strain/Indicator: CHO-UV5 (HGPRT)/6-THIOGUANINE, Metabolic Activation: RAT, LIVER, S-9, AROCLOR 1254, Method: STANDARD PLATE) “active; positive”.
Regarding `Nc1cc2nc3ccccc3nc2cc1N`, the mutagenic call is “inactive; negative” (Test System: AMES SALMONELLA TYPHIMURIUM, Strain/Indicator: TA98(1,8-DNP6), Metabolic Activation: NONE, Method: PREINCUBATION); “active; positive” (Test System: AMES SALMONELLA TYPHIMURIUM, Strain/Indicator: TA98(1,8-DNP6), Metabolic Activation: S-9, Method: PREINCUBATION); “inactive; negative” (Test System: AMES SALMONELLA TYPHIMURIUM, Strain/Indicator: TA98, Metabolic Activation: NONE, Method: PREINCUBATION); “active; positive” under setting [1]; “active; positive” under setting [2]; “active; positive” (Test System: AMES SALMONELLA TYPHIMURIUM, Strain/Indicator: TA98, Metabolic Activation: S-9, Method: PREINCUBATION). Also, the mutagenic call was “active; positive” (Test System: AMES SALMONELLA TYPHIMURIUM, Strain/Indicator: TA98, Metabolic Activation: S-9, Method: SUSPENSION/PLATE); “inactive; negative” (Test System: AMES SALMONELLA TYPHIMURIUM, Strain/Indicator: TA100(OAT-), Metabolic Activation: NONE, Method: PREINCUBATION); “inactive; negative” (Test System: AMES SALMONELLA TYPHIMURIUM, Strain/Indicator: TA100(OAT-), Metabolic Activation: S-9, Method: PREINCUBATION); “inactive; negative” under setting [3]; “inactive; negative” under setting [4]; “active; positive” under setting [5]. For the same compound, the mutagenic call (Test System: AMES SALMONELLA TYPHIMURIUM, Strain/Indicator: TA100, Metabolic Activation: S-9, Method: PREINCUBATION) is “active; positive”; the mutagenic call (Test System: AMES SALMONELLA TYPHIMURIUM, Strain/Indicator: TA1029, Metabolic Activation: S-9, Method: PREINCUBATION) is “active; positive”; the mutagenic call (Test System: AMES SALMONELLA TYPHIMURIUM, Strain/Indicator: TA1537, Metabolic Activation: NONE, Method: STANDARD PLATE) is “active; positive”; the mutagenic call (Test System: AMES SALMONELLA TYPHIMURIUM, Strain/Indicator: TA1537, Metabolic Activation: RAT, LIVER, S-9, AROCLOR 1254, Method: STANDARD PLATE) is “active; positive”; the mutagenic call (Test System: AMES SALMONELLA TYPHIMURIUM, Strain/Indicator: YG1024, Metabolic Activation: PLANT CELL-FREE EXTRACT, Method: PREINCUBATION) was “active; positive”; the mutagenic call (Test System: AMES SALMONELLA TYPHIMURIUM, Strain/Indicator: YG1024, Metabolic Activation: S-9, Method: PREINCUBATION) is “active; positive”. Also, the mutagenic call by setting is: (Test System: AMES SALMONELLA TYPHIMURIUM, Strain/Indicator: YG1029, Metabolic Activation: PLANT CELL-FREE EXTRACT, Method: PREINCUBATION) “active; positive”; (Test System: AMES SALMONELLA TYPHIMURIUM, Strain/Indicator: YG1029, Metabolic Activation: S-9, Method: PREINCUBATION) “active; positive”.
